For data set [1], the system named is T1, CTL2-GFP (C. trachomatis L2/434/Bu, GFP-expressing).
T1 construct: L2/434/Bu, GFP-expressing
Nature of the data set: microbe, parasite or virus in culture. The following applies: Chlamydia trachomatis, 28.5 h; mean of GFP and inclusion area. Also on record: species or system HeLa; C. trachomatis growth in HeLa, dose-response, mean of bulk GFP fluorescence and imaged total inclusion area. In short, it runs like this: (§1)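 Read-out combines bulk fluorescence and imaging: GFP tracks chlamydial growth, resorufin tracks host cell viability. Plates were then fixed and Hoechst-stained so inclusions and nuclei could be imaged and counted per well.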

For data set [2] the test system is unchanged. Briefly: microbe, parasite or virus in culture. On the set-up: C. trachomatis growth in HeLa, dose-response, mean of bulk GFP fluorescence and imaged total inclusion area. The following applies: Chlamydia trachomatis, HeLa, 28.5 h; mean of GFP and inclusion area. In short, it runs like this:
as §1

The nature of the next data set: in vitro. On the set-up: Viability of infected HeLa host cells, resazurin conversion, bulk resorufin fluorescence relative to DMSO. The following applies: human, hela cells; bulk resorufin, mean of 3.
In the next data set the test system is T2, B. adolescentis.
T2 construct: DSM 20083
Nature of the data set: microbe, parasite or virus in culture. Also on record: Microbial growth in liquid dilution assay, OD600 relative to DMSO control. The following applies: Bifidobacterium adolescentis; estimated IC50; read-out: B. adolescentis, IC50 (µM) estimate. The source says:
(§2) Compound effects on commensal microbes in dilution assay As our objective was to discover compounds that inhibit Chlamydia selectively but spare commensal bacteria, we further tested 15 of our top compounds (c1e–c10e and c1v–c5v) against five bacterial species, Escherichia coli, Lactobacillus reuteri, Enterococcus faecalis, Bacteroides thetaiotaomicron, and Bifidobacterium adolescentis, representing the four dominating phyla of the human gut microbiota. […] Exceptions were c3e and c5e, which at 30 µM were inhibitory to some species. […] Of note, c1e–c3e had little or no effect on the growth of an even larger set of species of gut bacteria, also including Blautia coccoides, Prevotella copri, Prevotella histicola, Bacteroides fragilis, and Dubosiella newyorkensis, when tested in radial diffusion assays, in which the bacteria were exposed to compounds for 24–48 h before measurements of growth inhibition zones (S10B Fig and S5G Data).

Another data set has as its system T3, E. coli.
T3 construct: DSM 301
Briefly: microbe, parasite or virus in culture. On the set-up: Microbial growth in liquid dilution assay, OD600 relative to DMSO control. The following applies: Escherichia coli; estimated IC50; read-out: E. coli, IC50 (µM) estimate.
Source text: as §2

The next data set concerns T4, L. reuteri.
T4 construct: DSM 20016
Nature of the data set: microbe, parasite or virus in culture. Also on record: Microbial growth in liquid dilution assay, OD600 relative to DMSO control. The following applies: Limosilactobacillus reuteri; estimated IC50; read-out: L. reuteri, IC50 (µM) estimate.
Source text: as §2

The next data set has as its system T5, E. faecalis.
T5 construct: DSM 20478
Briefly: microbe, parasite or virus in culture. Also on record: Microbial growth in liquid dilution assay, OD600 relative to DMSO control. The following applies: Enterococcus faecalis; estimated IC50; read-out: E. faecalis, IC50 (µM) estimate.
Source text: as §2

The subject of a further data set is T6, B. thetaiotaomicron.
T6 construct: DSM 2079
Briefly: microbe, parasite or virus in culture. Also on record: Microbial growth in liquid dilution assay, OD600 relative to DMSO control. The following applies: Bacteroides thetaiotaomicron; estimated IC50; read-out: B. thetaiotaomicron, IC50 (µM) estimate.
Source text: as §2

The next data set has as its system T7, L. iners.
T7 construct: DSM 13335
Nature of the data set: organism not typed. Also on record: Microbial growth in liquid dilution assay, OD600 relative to DMSO control. The following applies: estimated IC50; read-out: L. iners, IC50 (µM) estimate.

In a further data set the test system is T8, L. crispatus.
T8 construct: DSM 20584
Briefly: microbe, parasite or virus in culture. Also on record: Microbial growth in liquid dilution assay, OD600 relative to DMSO control. The following applies: Lactobacillus crispatus; estimated IC50; read-out: L. crispatus, IC50 (µM) estimate.

For a further data set, the system named is T9, G. vaginalis.
T9 construct: DSM 4944
Briefly: microbe, parasite or virus in culture. On the set-up: Microbial growth in liquid dilution assay, OD600 relative to DMSO control. The following applies: Gardnerella vaginalis, read-out: G. vaginalis, IC50 (µM) estimate.

In another data set the test system is T10, C. albicans.
T10 construct: DSM 1577
Nature of the data set: microbe, parasite or virus in culture. The following applies: Candida albicans, read-out: C. albicans, IC50 (µM) estimate. On the set-up: Microbial growth in liquid dilution assay, OD600 relative to DMSO control.

Data set [3] deals with T11, acyl-modification-free ctFabH (Chlamydia trachomatis, UniProt O84242).
T11 construct: gene fabH
T11 sequence (O84242 2-327): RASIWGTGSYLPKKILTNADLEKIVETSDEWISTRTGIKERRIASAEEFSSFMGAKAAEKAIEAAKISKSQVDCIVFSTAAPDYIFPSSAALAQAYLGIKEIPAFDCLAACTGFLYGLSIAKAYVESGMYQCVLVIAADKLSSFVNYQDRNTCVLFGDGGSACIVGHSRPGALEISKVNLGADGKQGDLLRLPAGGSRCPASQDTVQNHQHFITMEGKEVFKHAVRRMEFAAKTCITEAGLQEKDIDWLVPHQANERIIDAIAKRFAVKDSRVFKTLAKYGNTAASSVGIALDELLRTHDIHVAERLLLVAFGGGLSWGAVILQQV
Nature of the data set: intact protein LC/MS. The class given is biochemical. The following applies: covalent acyl-enzyme intermediate; 10 µM protein, 50 µM acyl-CoA, pH 7.0.

Data set [4] relates to T1, CTL2-GFP (C. trachomatis L2/434/Bu, GFP-expressing). Nature of the data set: microbe, parasite or virus in culture. On the set-up: Intracellular C. trachomatis growth in HeLa cells, bulk GFP fluorescence relative to DMSO. The following applies: Chlamydia trachomatis, HeLa, 28.5 h; bulk GFP. As for the experimental part: (§3) MICs were calculated as described above.
Data set [5] has the same test system. Nature of the data set: microbe, parasite or virus in culture. On the set-up: species or system HeLa; Intracellular C. trachomatis growth in HeLa cells, bulk GFP fluorescence relative to DMSO. The following applies: Chlamydia trachomatis, 28.5 h; bulk GFP. As for the experimental part:
as §3

Data set [6] addresses T12, ctFabH (CTL2 FabH), His6(-fMet)SG-ctFabH (Chlamydia trachomatis, UniProt O84242).
T12 construct: synthetic gene, modified pRSF-Duet1, E. coli host; partly acylated (mainly pentanoyl) as purified
T12 sequence (O84242 2-327): T11 sequence (O84242 2-327)
Nature of the data set: continuous UV assay of acetoacetyl-CoA at […] nm. The class given is biochemical. The following applies: 20 µM enzyme, 100 µM acetyl-CoA, 100 µM malonyl-CoA, pH 8.0, 25 °C, 50 mM MgCl2.

Structures are written as SMILES. Values after ≈ are worked out from the molar mass of the structure shown.

As a reminder, the IC50 is the point on the concentration scale where inhibition reaches its midpoint. As usually defined, the viability is a read-out of living cells in per cent, often relative to untreated cells. Turning to `c1c(C2CC2)[nH]c2nc(N3CCCC3)nc(N3CCCC3)c12` [c7e], the MIC in data set [1] is 0.669 µM (≈ 0.199 µg/mL). For the same molecule, the IC50 in [2] worked out at 0.443 µM. In the data set “in vitro”, the viability at 28.5 h, 0.000416667 µM stood at 88.8%; the viability at 28.5 h, 0.00125 µM was 85.2%; the viability at 28.5 h, 0.00375 µM amounted to 86.7%; the viability at 28.5 h, 0.0123333 µM was 86.6%. In “in vitro”, the viability at 28.5 h, 0.037 µM is 89.7%; the viability at 28.5 h, 0.111 µM was 85.9%; the viability at 28.5 h, 0.333 µM is 89.7%; the viability at 28.5 h, 1 µM is 87.4%. Also, in the data set “in vitro”, the viability at 28.5 h, 3 µM is 89.6%; the viability at 28.5 h, 10 µM came to 86.6%; the viability at 28.5 h, 30 µM was 81.1%. The IC50 with B. adolescentis is greater than 30 µM. Moreover, the IC50 in the data set with E. coli was greater than 30 µM. In the data set with L. reuteri, the half-inhibitory concentration (IC50) was greater than 30 µM. For the same molecule, the IC50 in the data set on E. faecalis was greater than 30 µM. Also, in the data set on B. thetaiotaomicron, the IC50 is greater than 30 µM.
Regarding `O=C(c1ccc(-c2ccc(F)cc2)o1)N1C[C@H]2CC[C@](O)(c3ccc(F)cc3)[C@H]2C1` [c2e], the MIC in data set [1] is 0.139 µM (≈ 0.0569 µg/mL). In addition, it took 0.0961 µM to reach half-maximal inhibition in data set [2] (IC50). In addition, in the data set on L. iners, the IC50 was greater than 30 µM. Further, in “in vitro”, the viability at 28.5 h, 0.000416667 µM came out at 90.3%; the viability at 28.5 h, 0.00125 µM turned out to be 85.8%; the viability at 28.5 h, 0.00375 µM came to 93.6%; the viability at 28.5 h, 0.0123333 µM turned out to be 89%. Also, in the data set “in vitro”, the viability at 28.5 h, 0.037 µM was 91.7%; the viability at 28.5 h, 0.111 µM is 95.5%; the viability at 28.5 h, 0.333 µM was 95.7%; the viability at 28.5 h, 1 µM was 93.7%. For the same molecule, in the data set “in vitro”, the viability at 28.5 h, 3 µM stood at 98.2%; the viability at 28.5 h, 10 µM turned out to be 98.8%; the viability at 28.5 h, 30 µM came to 116%. The IC50 in the data set with B. adolescentis is greater than 30 µM. Besides, the IC50 with E. coli was greater than 30 µM. Further, the half-inhibitory concentration (IC50) in the data set with L. reuteri is greater than 30 µM. Further, in the data set with E. faecalis, the IC50 is greater than 30 µM. The IC50 in the data set on B. thetaiotaomicron is greater than 30 µM. Besides, the IC50 in the data set with L. crispatus was greater than 30 µM. For the same molecule, the IC50 in the data set with G. vaginalis was greater than 30 µM. The IC50 in the data set on C. albicans was greater than 30 µM.
`O=C(N/N=C\c1ccc([N+](=O)[O-])o1)c1nc(-c2ccccc2)cc(-c2ccccc2)n1` [c3e] came in with an IC50 in data set [2] of 0.126 µM. In addition, the IC50 in the data set with L. iners was greater than 30 µM. For the same molecule, in “in vitro”, the viability at 28.5 h, 0.000416667 µM is 92%; the viability at 28.5 h, 0.00125 µM stood at 92.4%; the viability at 28.5 h, 0.00375 µM was determined as 88.3%; the viability at 28.5 h, 0.0123333 µM amounted to 89.2%. Also, in the data set “in vitro”, the viability at 28.5 h, 0.037 µM came to 86.8%; the viability at 28.5 h, 0.111 µM came to 92.2%; the viability at 28.5 h, 0.333 µM came out at 91.6%; the viability at 28.5 h, 1 µM worked out at 90.7%. Moreover, in “in vitro”, the viability at 28.5 h, 3 µM is 90%; the viability at 28.5 h, 10 µM was determined as 98.9%; the viability at 28.5 h, 30 µM was determined as 107%. The 50% inhibitory concentration (IC50) with B. adolescentis was 18.3 µM. In addition, the IC50 in the data set with E. coli is greater than 30 µM. For the same molecule, the IC50 in the data set on L. reuteri is greater than 30 µM. Also, in the data set on E. faecalis, the IC50 was 15.4 µM. In addition, the half-inhibitory concentration (IC50) in the data set on B. thetaiotaomicron is 10.3 µM. Further, the IC50 with L. crispatus was greater than 30 µM. The IC50 with G. vaginalis was greater than 30 µM. Also, the IC50 with C. albicans was greater than 30 µM.
As for `CC(C)CC(=O)SCCNC(=O)CCNC(=O)[C@H](O)C(C)(C)COP(=O)(O)OP(=O)(O)OC[C@H]1O[C@@H](n2cnc3c(N)ncnc32)[C@H](O)[C@@H]1OP(=O)(O)O` [isovaleryl-CoA], in data set [3], the “intact protein LC/MS” value was 2-methylbutyryl-CoA or isovaleryl-CoA, as expected, generated the corresponding acyl-enzyme intermediates.
As to `Cc1noc(NS(=O)(=O)c2ccc(NC(=O)CSc3nc4ccccc4s3)cc2)c1C` [c1v], the IC50 in data set [4] was 0.412 µM; in the data set on L. iners, greater than 30 µM; in the data set with B. adolescentis it was greater than 30 µM; with E. coli, greater than 30 µM; in the data set on L. reuteri it was greater than 30 µM; with E. faecalis, greater than 30 µM. Moreover, the IC50 in the data set on B. thetaiotaomicron, with L. crispatus, in the data set with G. vaginalis and with C. albicans was greater than 30 µM each time. Also, the MIC in data set [5] amounted to 0.552 µM (≈ 0.262 µg/mL).
In the case of `CC(=O)SCCNC(=O)CCNC(=O)[C@H](O)C(C)(C)COP(=O)(O)OP(=O)(O)OC[C@H]1O[C@@H](n2cnc3c(N)ncnc32)[C@H](O)[C@@H]1OP(=O)(O)O` [acetyl-CoA], the “continuous UV assay of acetoacetyl-CoA at 302 nm” value in data set [6] is “using acetyl-CoA and malonyl-CoA (instead of malonyl-ACP) as substrates”.

The values above are taken from paper PMC12040169 (PLOS Biology, 2025).
